Results reported in patent US20260234157A1, “COMPOUND AND METHOD FOR TARGETED DEGRADATION OF ANDROGEN RECEPTOR” (Gan & Lee Pharmaceuticals Co., Ltd., priority 2023, published 2026).
Where a chain is given by its changes, count along the chain named.

Columns and labels:
Type in all cases: cell-based
[1] = tested on: VCaP cells; assay: Inhibition of proliferation of VCaP cells (WST-8); conditions: Homo sapiens; VCaP cells, 168 hours, WST-8 absorbance at 450 nm; read-out: IC50 for inhibiting the proliferation of VCaP cells
Method in brief: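 VCaP FGC cells, 15000 per well in DMEM with 10% FBS, were cultured at 37° C, 5% CO2. On day nine, WST-8 reagent was added to read proliferation.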

[2] = molecular target: T1, AR protein (Homo sapiens, UniProt P10275); assay: Degradation of AR protein in VCaP cells (Western blot); conditions: 8 hours; for inhibition at 0.01 µM: compound at 10 nM, read-out: Degradation rate of the AR protein in VCaP cells, 10 nM (%); for inhibition at 0.1 µM: compound at 100 nM, read-out: Degradation rate of the AR protein in VCaP cells, 100 nM (%)
T1 construct: degradation activity of the compounds disclosed in the present disclosure on AR protein in VCaP cells; host or cells: VCaP
T1 sequence (P10275 1-920): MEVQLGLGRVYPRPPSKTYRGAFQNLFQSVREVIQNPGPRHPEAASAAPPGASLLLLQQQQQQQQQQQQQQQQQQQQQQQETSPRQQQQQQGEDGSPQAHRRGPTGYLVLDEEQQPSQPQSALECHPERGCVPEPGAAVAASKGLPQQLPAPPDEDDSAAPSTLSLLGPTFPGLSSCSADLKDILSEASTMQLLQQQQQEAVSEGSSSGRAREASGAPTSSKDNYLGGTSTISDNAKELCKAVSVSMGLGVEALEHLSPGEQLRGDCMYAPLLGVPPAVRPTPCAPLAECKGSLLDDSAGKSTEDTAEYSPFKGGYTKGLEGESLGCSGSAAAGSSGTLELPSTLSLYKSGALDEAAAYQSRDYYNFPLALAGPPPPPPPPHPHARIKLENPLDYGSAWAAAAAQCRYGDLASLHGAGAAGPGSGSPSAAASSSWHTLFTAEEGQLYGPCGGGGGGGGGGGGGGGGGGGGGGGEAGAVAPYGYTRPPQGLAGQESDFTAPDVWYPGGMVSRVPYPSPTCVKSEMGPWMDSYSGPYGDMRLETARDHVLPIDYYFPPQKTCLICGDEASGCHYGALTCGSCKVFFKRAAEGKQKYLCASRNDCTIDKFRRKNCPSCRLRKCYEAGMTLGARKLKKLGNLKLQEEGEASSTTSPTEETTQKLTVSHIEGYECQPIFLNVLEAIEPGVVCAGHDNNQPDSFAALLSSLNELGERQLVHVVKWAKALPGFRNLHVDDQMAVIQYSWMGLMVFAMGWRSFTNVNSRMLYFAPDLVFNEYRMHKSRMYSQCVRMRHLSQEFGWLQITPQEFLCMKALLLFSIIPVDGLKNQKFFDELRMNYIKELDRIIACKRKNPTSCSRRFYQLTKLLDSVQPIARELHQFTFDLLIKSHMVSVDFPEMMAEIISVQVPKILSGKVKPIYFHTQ
Method in brief: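 VCaP cells treated with compound alongside solvent controls for 8 h, then lysed in RIPA and protein quantified by BCA. AR detected by SDS-PAGE/Western blot with infrared imaging. Degradation rate calculated from band grayscale, with GAPDH as internal reference.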

[3] = tested on: LNCaP FGC cells; assay: Inhibition of proliferation of LNCaP cells (WST-8); conditions: Homo sapiens, LNCaP, 96 h, LNCaP FGC cells, 96 hours, WST-8 absorbance at 450 nm; read-out: IC50 for inhibiting the proliferation of LNCaP cells
Procedure: The cells were cultured in a cell culture incubator with 5% CO2 at 37° C. overnight. […] On the sixth day, 96 well plates were taken out, and 20 μL of WST-8 (Beytime, C0040) reagent was added to each well.

[4] = molecular target: T2, AR protein (Homo sapiens, UniProt P10275, T878A); assay: Degradation of AR protein in LNCaP cells (Western blot); conditions: LNCaP cells, 8 hours, Western blot grayscale, GAPDH internal reference; for inhibition at 0.01 µM: compound 10 nM, read-out: Degradation rates of the AR protein in LNCaP cells, 10 nM (%); for inhibition at 0.1 µM: compound 100 nM, read-out: Degradation rates of the AR protein in LNCaP cells, 100 nM (%)
T2 construct: degradation activity of the compounds disclosed in the present disclosure on AR protein in LNCaP cells; host or cells: LNCaP FGC
T2 sequence (P10275 1-920 T878A): T1 sequence (P10275 1-920) with T878A
Method in brief: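 AR assessed by SDS-PAGE/Western blot with infrared imaging; band greyscale normalised to GAPDH gave percent degradation.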

Row | Compound | IC50 [1] [nM] | inhibition at 0.01 µM [2] [%] | inhibition at 0.1 µM [2] [%] | IC50 [3] [nM] | inhibition at 0.01 µM [4] [%] | inhibition at 0.1 µM [4] [%]
1 | N#Cc1ccc(O[C@H]2CC[C@H](NC(=O)c3ccc(N4CCC(C#N)(CN5CCC6(CC5)COc5c6ccc6c5C(=O)N(C5CCC(=O)NC5=O)C6=O)CC4)nn3)CC2)cc1Cl (stereo partly drawn) [Compound 227] | 30 | 24 | 60 | 170 | 45 | 62
2 | N#Cc1ccc(O[C@H]2CC[C@H](NC(=O)c3ccc(N4CCC(C#N)(CN5CCC6(CC5)COc5c6ccc6c5C(=O)N(C5CCC(=O)NC5=O)C6=O)CC4)nn3)CC2)cc1C(F)(F)F (stereo partly drawn) [Compound 228] | 470 | -9 | 18 | 2290 | 30 | 56
3 | COc1cc(O[C@H]2CC[C@H](NC(=O)c3ccc(N4CCC(C#N)(CN5CCC6(CC5)COc5c6ccc6c5C(=O)N(C5CCC(=O)NC5=O)C6=O)CC4)nn3)CC2)ccc1C#N (stereo partly drawn) [Compound 229] | 15 | 33 | 73 | 330 | 49 | 59
4 | COc1cc(O[C@H]2CC[C@H](NC(=O)c3ccc(N4CCC(CN5CC6(CCc7cc8c(cc7O6)C(=O)N(C6CCC(=O)NC6=O)C8=O)C5)(OC)CC4)nn3)CC2)ccc1C#N (stereo partly drawn) [Compound 231] | 5120 | 11 | 63 | 3710 | 31 | 28
5 | N#Cc1ccc(O[C@H]2CC[C@H](NC(=O)c3ccc(N4CCN(C(=O)CN5CCC6(CC5)COc5c6ccc6c5CN(C5CCC(=O)NC5=O)C6=O)CC4)nn3)CC2)cc1Cl (stereo partly drawn) [Compound 233] | 43 | 74 | 87 | 34300 | 49 | 62
6 | COc1cc(O[C@H]2C(C)(C)[C@H](NC(=O)c3ccc(N4CCC(CN5CCC6(CC5)COc5c6ccc6c5C(=O)N(C5CCC(=O)NC5=O)C6=O)CC4)cc3)C2(C)C)ccc1C#N (stereo partly drawn) [Compound 234] | 36 | 35 | 72 | 270 | 58 | 81
7 | N#Cc1ccc(O[C@H]2CC[C@H](NC(=O)c3ccc(C#CC4CCC(N5CCC6(CC5)COc5c6ccc6c5CN(C5CCC(=O)NC5=O)C6=O)CC4)nc3)CC2)cc1Cl (stereo partly drawn) [Compound 235] | 2 | 35 | 76 | 840 | 39 | 36
8 | CCC1(CN2CCC3(CC2)COc2c3ccc3c2CN(C2CCC(=O)NC2=O)C3=O)CCN(c2ccc(C(=O)N[C@H]3CC[C@H](Oc4ccc(C#N)c(Cl)c4)CC3)nn2)CC1 (stereo partly drawn) [Compound 236] | 1 | 37 | 82 | 22 | 44 | 60
9 | CC1(C)[C@H](NC(=O)c2ccc(N3CCC(F)(CN4CCC5(CC4)COc4c5ccc5c4CN(C4CCC(=O)NC4=O)C5=O)CC3)nn2)C(C)(C)[C@H]1Oc1ccc(C#N)c(C(F)(F)F)c1 (stereo partly drawn) [Compound 237] | 4.5 | -46 | 23 | 51 | 6 | 39
10 | N#Cc1ccc(O[C@H]2CC[C@H](NC(=O)c3ccc(N4CCC(CN5CCC6(CC5)COc5c6ccc6c5CN(C5CCC(=O)NC5=O)C6=O)(C5CC5)CC4)nn3)CC2)cc1Cl (stereo partly drawn) [Compound 238] | 1.6 | 54 | 79 | 21 | 31 | 61
11 | N#Cc1ccc(O[C@H]2CC[C@H](NC(=O)c3ccc(C#Cc4ccc(N5CCC6(CC5)COc5c6ccc6c5CN(C5CCC(=O)NC5=O)C6=O)nc4)nn3)CC2)cc1Cl (stereo partly drawn) [Compound 239] | 22 | 11 | 54 | 13500 | 65 | 69
